Tests used:
purple nutsedge = assay: Test B pre/postemergence purple nutsedge; assay type: in vivo, Cyperus rotundus
In short: (§1)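 Response is a visual 0-to-10 score relative to untreated plants, where 0 means no effect and 10 means complete control, taken twelve to sixteen days after application. Treatments went onto soil at planting and onto foliage of 1- to 4-leaf plants, using a surfactant-containing non-phytotoxic solvent.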

smallflower flatsedge = assay: Test B flood test smallflower flatsedge; assay type: in vivo, Cyperus difformis
In short: (§2)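 Each value is a visual injury score relative to controls, with 10 meaning complete control and 0 no effect. Evaluation took place twelve to sixteen days after the 2-leaf-stage plants were treated and kept in the greenhouse.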

sugar beet = assay: Test B pre/postemergence sugar beet; assay type: in vivo, Beta vulgaris
In short: as §1

surinam grass = assay: Test B pre/postemergence surinam grass; assay type: in vivo, Brachiaria decumbens
In short: as §1

rape = assay: Test B pre/postemergence rape; assay type: in vivo, Brassica napus
In short: as §1

wheat = assay: Test B pre/postemergence wheat; assay type: in vivo, Triticum aestivum
In short: as §1

morningglory = assay: Test B pre/postemergence morningglory; assay type: in vivo, Ipomoea hederacea
In short: as §1

giant foxtail = assay: Test B pre/postemergence giant foxtail; assay type: in vivo, Setaria faberii
In short: as §1

duck salad = assay: Test B flood test duck salad; assay type: in vivo, Heteranthera limosa
In short: as §2

velvetleaf = assay: Test B pre/postemergence velvetleaf; assay type: in vivo, Abutilon theophrasti
In short: as §1

cocklebur = assay: Test B pre/postemergence cocklebur; assay type: in vivo, Xanthium strumarium
In short: as §1

pigweed = assay: Test B pre/postemergence pigweed; assay type: in vivo, Amaranthus retroflexus
In short: as §1

corn = assay: Test B pre/postemergence corn; assay type: in vivo, Zea mays
In short: as §1

crabgrass = assay: Test B pre/postemergence crabgrass; assay type: in vivo, Digitaria sanguinalis
In short: as §1

rice = assay: Test B flood test rice; assay type: in vivo, Oryza sativa
In short: as §2

blackgrass = assay: Test B pre/postemergence blackgrass; assay type: in vivo, Alopecurus myosuroides
In short: as §1

[1] = Postemergence, Rate 125 g/ha, scale of 0 to 10 where 0 is no effect and 10 is complete control
[2] = Preemergence, Rate 125 g/ha, scale of 0 to 10 where 0 is no effect and 10 is complete control
[3] = Preemergence, Rate 250 g/ha, scale 0 to 10 (0 no effect, 10 complete control)
[4] = Preemergence, Rate 500 g/ha, scale of 0 to 10 where 0 is no effect and 10 is complete control
[5] = Rate 500 g/ha, Postemergence, scale 0 to 10, 0 is no effect, 10 is complete control
[6] = Rate 1000 g/ha, Preemergence, scale 0 to 10 (0 no effect, 10 complete control)
[7] = Pre-emergence, Rate 1000 g/ha, scale 0 to 10 (0 no effect, 10 complete control)
[8] = Rate 125 g/ha, under heading Pre-emergence, flood test species, visual evaluation after twelve to sixteen days
[9] = Rate 250 g/ha, Pre-emergence (flood test species), scale 0 to 10, 0 is no effect, 10 is complete control
[10] = Rate 500 g/ha, Pre-emergence section of Table B, 0 to 10 scale (0 no effect, 10 complete control)
[11] = Postemergence, Rate 1000 g/ha, scale 0 to 10 (0 no effect, 10 complete control)
[12] = Postemergence, Rate 250 g/ha, scale of 0 to 10, 0 is no effect, 10 is complete control

Compound: COP(=O)(CCn1c(=O)on(C(=O)N(c2ccc(F)cc2)C(C)C)c1=O)OC [Compound 662]
- Nutsedge plant response rating (purple nutsedge; [1]): 0
- Nutsedge plant response rating (purple nutsedge; [2]): 0
- Plant response rating, Nutsedge (purple nutsedge; [3]): 4
- Plant response rating, Nutsedge (purple nutsedge; [4]): 7
- Nutsedge plant response rating (purple nutsedge; [5]): 5
- Plant response rating, Nutsedge (purple nutsedge; [6]): 10
- S. Flatsedge plant response rating (smallflower flatsedge; [7]): 0
- S. Flatsedge plant response rating (0 to 10 scale, 0 is no effect, 10 is complete control) (smallflower flatsedge; [8]): 0
- S. Flatsedge plant response rating (smallflower flatsedge; [9]): 0
- S. Flatsedge plant response rating (smallflower flatsedge; [10]): 0
- Sugarbeets plant response rating (sugar beet; [1]): 0
- Sugarbeets plant response rating (sugar beet; [11]): 0
- Sugarbeets plant response rating (sugar beet; [2]): 0
- Plant response rating, Sugarbeets (sugar beet; [3]): 0
- Plant response rating, Sugarbeets (sugar beet; [4]): 0
- Sugarbeets plant response rating (sugar beet; [5]): 0
- Plant response rating, Sugarbeets (sugar beet; [6]): 0
- Plant response rating, B. signalgrass (surinam grass; [1]): 0
- B. signalgrass plant response rating (surinam grass; [12]): 0
- B. signalgrass plant response rating (surinam grass; [11]): 2
- B. signalgrass plant response rating (surinam grass; [2]): 0
- Plant response rating, B. signalgrass (surinam grass; [3]): 3
- Plant response rating, B. signalgrass (surinam grass; [4]): 7
- B. signalgrass plant response rating (surinam grass; [5]): 2
- Plant response rating, B. signalgrass (surinam grass; [6]): 9
- Rape plant response rating (rape; [1]): 0
- Rape plant response rating (rape; [11]): 0
- Rape plant response rating (rape; [2]): 0
- Plant response rating, Rape (rape; [3]): 0
- Plant response rating, Rape (rape; [4]): 0
- Rape plant response rating (rape; [5]): 0
- Plant response rating, Rape (rape; [6]): 4
- Wheat plant response rating (wheat; [1]): 0
- Wheat plant response rating (wheat; [11]): 0
- Wheat plant response rating (wheat; [2]): 0
- Plant response rating, Wheat (wheat; [3]): 0
- Plant response rating, Wheat (wheat; [4]): 0
- Wheat plant response rating (wheat; [5]): 0
- Plant response rating, Wheat (wheat; [6]): 5
- Morningglory plant response rating (morningglory; [1]): 7
- Morningglory plant response rating (morningglory; [12]): 9
- Morningglory plant response rating (morningglory; [11]): 7
- Morningglory plant response rating (morningglory; [2]): 0
- Plant response rating, Morningglory (morningglory; [3]): 0
- Plant response rating, Morningglory (morningglory; [4]): 1
- Morningglory plant response rating (morningglory; [5]): 7
- Plant response rating, Morningglory (morningglory; [6]): 3
- Giant foxtail plant response rating (giant foxtail; [1]): 0
- Giant foxtail plant response rating (giant foxtail; [12]): 2
- Giant foxtail plant response rating (giant foxtail; [11]): 8
- Giant foxtail plant response rating (giant foxtail; [2]): 7
- Plant response rating, Giant foxtail (giant foxtail; [3]): 9
- Plant response rating, Giant foxtail (giant foxtail; [4]): 10
- Giant foxtail plant response rating (giant foxtail; [5]): 5
- Plant response rating, Giant foxtail (giant foxtail; [6]): 10
- Ducksalad plant response rating (duck salad; [7]): 0
- Ducksalad plant response rating (0 to 10 scale, 0 is no effect, 10 is complete control) (duck salad; [8]): 0
- Ducksalad plant response rating (duck salad; [9]): 0
- Ducksalad plant response rating (duck salad; [10]): 0
- Velvetleaf plant response rating (velvetleaf; [1]): 0
- Velvetleaf plant response rating (velvetleaf; [11]): 0
- Velvetleaf plant response rating (velvetleaf; [2]): 0
- Plant response rating, Velvetleaf (velvetleaf; [3]): 0
- Plant response rating, Velvetleaf (velvetleaf; [4]): 2
- Velvetleaf plant response rating (velvetleaf; [5]): 0
- Plant response rating, Velvetleaf (velvetleaf; [6]): 2
- Cocklebur plant response rating (cocklebur; [1]): 0
- Cocklebur plant response rating (cocklebur; [12]): 0
- Cocklebur plant response rating (cocklebur; [11]): 5
- Cocklebur plant response rating (cocklebur; [2]): 0
- Plant response rating, Cocklebur (cocklebur; [3]): 0
- Plant response rating, Cocklebur (cocklebur; [4]): 2
- Cocklebur plant response rating (cocklebur; [5]): 0
- Plant response rating, Cocklebur (cocklebur; [6]): 9
- Redroot pigweed plant response rating (pigweed; [1]): 0
- Redroot pigweed plant response rating (pigweed; [11]): 0
- Redroot pigweed plant response rating (pigweed; [2]): 0
- Plant response rating, Redroot pigweed (pigweed; [3]): 3
- Plant response rating, Redroot pigweed (pigweed; [4]): 7
- Redroot pigweed plant response rating (pigweed; [5]): 0
- Plant response rating, Redroot pigweed (pigweed; [6]): 7
- Corn plant response rating (corn; [1]): 0
- Corn plant response rating (corn; [12]): 0
- Corn plant response rating (corn; [11]): 1
- Corn plant response rating (corn; [2]): 0
- Plant response rating, Corn (corn; [3]): 0
- Plant response rating, Corn (corn; [4]): 3
- Corn plant response rating (corn; [5]): 0
- Plant response rating, Corn (corn; [6]): 5
- Crabgrass plant response rating (crabgrass; [1]): 0
- Crabgrass plant response rating (crabgrass; [12]): 0
- Crabgrass plant response rating (crabgrass; [11]): 8
- Crabgrass plant response rating (crabgrass; [2]): 0
- Plant response rating, Crabgrass (crabgrass; [3]): 4
- Plant response rating, Crabgrass (crabgrass; [4]): 6
- Crabgrass plant response rating (crabgrass; [5]): 2
- Plant response rating, Crabgrass (crabgrass; [6]): 9
- Rice plant response rating (rice; [7]): 0
- Rice plant response rating (0 to 10 scale, 0 is no effect, 10 is complete control) (rice; [8]): 0
- Rice plant response rating (rice; [9]): 0
- Rice plant response rating (rice; [10]): 0
- Blackgrass plant response rating (blackgrass; [1]): 0
- Blackgrass plant response rating (blackgrass; [12]): 0
- Blackgrass plant response rating (blackgrass; [11]): 6
- Blackgrass plant response rating (blackgrass; [2]): 3
- Plant response rating, Blackgrass (blackgrass; [3]): 4
- Plant response rating, Blackgrass (blackgrass; [4]): 9
- Blackgrass plant response rating (blackgrass; [5]): 3
- Plant response rating, Blackgrass (blackgrass; [6]): 9

Source: patent US6737383B1, “Herbicidal oxadiazolidines” (priority 1999, dated 2004)
